Experimental data reported in article PMC6150024, “In Vitro Evaluation of Cytotoxicity and Permeation Study on Lysine- and Arginine-Based Lipopeptides with Proven Antimicrobial Activity” (Molecules : A Journal of Synthetic Chemistry and Natural …, 2017).
Values after ≈ are worked out from the molar mass of the structure shown. Where two headings read alike, the source gives them in different places. Residues, ends and D or L forms follow the SMILES beside them. *: point of attachment. Palmitoyl = CCCCCCCCCCCCCCCC(=O)*

How the values were obtained:
[1] = tested on: Escherichia coli (ATCC 25922); parameters: method as in 2 sources, ref 11 = [11]; PMID 28203232; doi:10.3389/fmicb.2017.00123; 11. Greber K.E. Dawgul M. Kamysz W. Sawicki W. Cationic net charge and counter ion type as antimicrobial activity determinant factors of short lipopeptides Front. Microbiol. 2017 8 1 10 10.3389/fmicb. ||| ref 12 = [12]; PMID 24748099; doi:10.1007/s00726-014-1744-9; 12. Greber K.E. Dawgul M. Kamysz W. Sawicki W. Łukasiak J. Biological and surface-active properties of double-chain cationic amino acid-based surfactants Amino Acids 2014 46 1893 1898 10.1007/s00726-0; settings: cited from earlier work; for MIC E. coli: ATCC 25922, serial dilution; for MBC E. coli: ATCC 25922
human red blood cells = settings: cited from earlier work
Text: (§1) The results of the MTT assay obtained in this study indicate high toxicity of lipopeptides containing one palmitic acid chain. This contradicts the previously advanced hypotheses about the selectivity of antimicrobial peptides. According to some authors, peptides designed based on naturally occurring compounds in human organisms are expected to be safe to human cells and their selectivity results from the presence of cholesterol and arrangement of lipids in the eukaryotic cell membrane. […] In the previou ...

[2] = tested on: Staphylococcus aureus (ATCC 25923); parameters: method as in 2 sources, ref 11 = [11]; PMID 28203232; doi:10.3389/fmicb.2017.00123; 11. Greber K.E. Dawgul M. Kamysz W. Sawicki W. Cationic net charge and counter ion type as antimicrobial activity determinant factors of short lipopeptides Front. Microbiol. 2017 8 1 10 10.3389/fmicb. ||| ref 12 = [12]; PMID 24748099; doi:10.1007/s00726-014-1744-9; 12. Greber K.E. Dawgul M. Kamysz W. Sawicki W. Łukasiak J. Biological and surface-active properties of double-chain cationic amino acid-based surfactants Amino Acids 2014 46 1893 1898 10.1007/s00726-0; settings: cited from earlier work; for MIC S. aureus: ATCC 25923, serial dilution; for MBC S. aureus: ATCC 25923
[3] = tested on: Candida albicans (ATCC 10231); parameters: method as in 2 sources, ref 11 = [11]; PMID 28203232; doi:10.3389/fmicb.2017.00123; 11. Greber K.E. Dawgul M. Kamysz W. Sawicki W. Cationic net charge and counter ion type as antimicrobial activity determinant factors of short lipopeptides Front. Microbiol. 2017 8 1 10 10.3389/fmicb. ||| ref 12 = [12]; PMID 24748099; doi:10.1007/s00726-014-1744-9; 12. Greber K.E. Dawgul M. Kamysz W. Sawicki W. Łukasiak J. Biological and surface-active properties of double-chain cationic amino acid-based surfactants Amino Acids 2014 46 1893 1898 10.1007/s00726-0; settings: cited from earlier work; for MIC C. albicans: ATCC 10231, serial dilution; for MFC C. albicans: ATCC 10231
HaCaT keratinocytes = type: cell-based, human
Procedure: HaCaT cells were obtained from American Type Culture Collection (ATCC). Cells were cultivated in Dulbecco’s modified Eagle Medium (Invitrogen) with 10% fetal bovine serum in humidified incubator at […] in 5% CO2 and cultured in 96-well plates and allowed to grow to 60–70% confluence prior to the start of the experiments.
The MTT assay is a colorimetric technique for assessing cell metabolic activity based on NAD(P)H-dependent cellular oxidoreductase enzymes activity that, under defined conditions, reflects the number of viable cells present. Viable cells reduce the tetrazolium dye MTT 3-(4,5-dimethylthiazol-2-yl)-2,5-diphenyltetrazolium bromide to its insoluble formazan, which has a purple colour. The colour intensity reflects the number of live cells and can be measured spectrophotometrically. Briefly, one day after culturing 500 cells per well, different concentrations of compounds were applied. After a 24-h incubation with the specified compounds, a medium containing 1 mg/mL MTT was added to the cells (HaCaT keratinocytes) up to a final concentration of 0.5 mg/mL and incubated at 37 °C for 4 h. The medium was then aspired, and the formazan product was solubilized with DMSO. The absorbance at 630 nm (background absorbance) was subtracted and absorbance measured at 570 nm for each well. There were 6 replicates for each tested concentration. All experiments were repeated at least twice. The resulting IC50 values were calculated with a GraFit 7 software (v. 7.0, Erithacus, Berkley, CA, USA).

[4] = tested on: Escherichia coli (ATCC 25922); type: cell-based; settings: for MBC E. coli / MIC E. coli: ATCC 25922, 18 h
Procedure: (§2) The compounds were dissolved in a mixture of dimethyl sulphoxide (DMSO) and phosphate buffer (PBS). […] MIC was determined by the serial dilution method on polystyrene 96-well plates with Mueller–Hinton II broth (MHB II) for reference bacterial strains: Staphylococcus aureus (ATCC 25923) and Escherichia coli (ATCC 25922), while for Candida albicans (ATCC 10231), the Sabouraud dextrose broth was applied. The microorganisms were obtained from the Polish Collection of Microorganisms (Wroclaw, Poland). Bacteria were cultured at 37 °C under aerobic conditions overnight in Brain Heart Infusion broth, centrifuged at 1000 rpm for 8 min, washed thrice with PBS and resuspended in MHB II. Candida albicans was cultured in Sabouraud dextrose broth for 48 h at 27 °C under aerobic conditions, centrifuged at 1000 rpm for 8 min, washed thrice with PBS and resuspended in Sabouraud dextrose broth. Bacterial (5 × 10^5 CFU/mL) and fungal (5 × 10^4 CFU/mL) suspensions were exposed to lipopeptides applied at graded concentrations (range 1–512 mg/L) for 18 h at 37 °C under aerobic conditions (bacteria) and 48 h at 27 °C under aerobic conditions (fungi). MIC was taken as the lowest concentration at which no visible growth of bacteria/fungi was observed. MBC and MFC were determined using MH II agar and Sabouraud Dextrose agar, for bacteria and fungi respectively. The contents of wells with MICs and two subsequent higher concentrations were transferred to agar plates and cultivated for 18 h at 37 °C under aerobic conditions (bacteria) and 48 h at 27 °C under aerobic conditions (fungi). The MBC and MFC were taken as the lowest concentrations at which no colony forming units were found. All tests were performed in triplicate.

[5] = tested on: Staphylococcus aureus (ATCC 25923); type: cell-based; settings: for MBC S. aureus / MIC S. aureus: ATCC 25923, 18 h
Procedure: as §2

[6] = tested on: Candida albicans (ATCC 10231); type: cell-based; settings: ATCC 10231, 48 h
Procedure: as §2

[7] = type: physicochemical
Procedure: as §2

human keratinocytes = settings: cited from earlier work
Text: as §1

[8] = MTT assay, 24 h exposure, 6 replicates per concentration, experiments repeated at least twice
[9] = classification of antimicrobial peptides from patent

(C10)2-KKKK-NH2
MIC E. coli ([1]; Table 1 ref 12): 16 µg/mL
MBC E. coli ([1]; Table 1 ref 12): 16 µg/mL
Toxicity towards human red blood cells at microbiologically active concentrations (human red blood cells): non-toxic
MIC S. aureus ([2]; Table 1 ref 12): 8 µg/mL
MBC S. aureus ([2]; Table 1 ref 12): 16 µg/mL
MIC C. albicans ([3]; Table 1 ref 12): 128 µg/mL
MFC C. albicans ([3]; Table 1 ref 12): 256 µg/mL
IC50 ± SD on HaCaT keratinocytes (HaCaT keratinocytes; [8]): 49.4 ± 9.1 mg/L
Activity class against E. coli by classification of Shai and Abrahami [4, 9]: active
Activity class against S. aureus by classification of Shai and Abrahami [5, 9]: highly active

CCCCCCCCCCCCCCCC(=O)N[C@@H](CCCNC(=N)N)C(=O)N[C@@H](CCCNC(=N)N)C(=O)N[C@@H](CCCNC(=N)N)C(N)=O [Lipopeptide C16-RRR-NH2] (Palmitoyl-Arg-Arg-Arg-NH2)
IC50 ± SD on HaCaT keratinocytes (HaCaT keratinocytes; 24 h): 3.2 ± 1.4 mg/L (≈ 4.42 µM)
MBC E. coli [4]: 16 µg/mL (≈ 22.1 µM)
MIC E. coli [4]: 16 µg/mL (≈ 22.1 µM)
MFC C. albicans [6]: 256 µg/mL (≈ 354 µM)
MIC C. albicans [6]: 128 µg/mL (≈ 177 µM)
MBC S. aureus [5]: 4 µg/mL (≈ 5.52 µM)
MIC S. aureus [5]: 2 µg/mL (≈ 2.76 µM)

(C12)2-KKKK-NH2
MIC E. coli ([1]; Table 1 ref 12): 64 µg/mL
MBC E. coli ([1]; Table 1 ref 12): 64 µg/mL
MIC S. aureus ([2]; Table 1 ref 12): 16 µg/mL
MBC S. aureus ([2]; Table 1 ref 12): 32 µg/mL
MIC C. albicans ([3]; Table 1 ref 12): 256 µg/mL
MFC C. albicans ([3]; Table 1 ref 12): 512 µg/mL
IC50 ± SD on HaCaT keratinocytes (HaCaT keratinocytes; [8]): 42.1 ± 9.1 mg/L

CCCCCCCCCCCCCCCC(=O)N[C@@H](CCCNC(=N)N)C(=O)N[C@@H](CCCNC(=N)N)C(N)=O [Lipopeptide C16-RR-NH2] (Palmitoyl-Arg-Arg-NH2)
IC50 ± SD on HaCaT keratinocytes (HaCaT keratinocytes; 24 h): 1.9 ± 0,3 mg/L
MBC E. coli [4]: 16 µg/mL (≈ 28.2 µM)
MIC E. coli [4]: 16 µg/mL (≈ 28.2 µM)
MFC C. albicans [6]: 256 µg/mL (≈ 451 µM)
MIC C. albicans [6]: 128 µg/mL (≈ 225 µM)
MBC S. aureus [5]: 8 µg/mL (≈ 14.1 µM)
MIC S. aureus [5]: 8 µg/mL (≈ 14.1 µM)

CCCCCCCCCCCCCCCC(=O)N[C@@H](CCCCN)C(=O)N[C@@H](CCCCN)C(=O)N[C@@H](CCCCN)C(N)=O [Lipopeptide C16-KKK-NH2]
Concentration at which solutions were obtained [7]: 512 µg/mL
MIC E. coli ([1]; Table 1 ref 11): 8 µg/mL (≈ 12.5 µM)
MBC E. coli ([1]; Table 1 ref 11): 16 µg/mL (≈ 25 µM)
MIC S. aureus ([2]; Table 1 ref 11): 4 µg/mL (≈ 6.25 µM)
MBC S. aureus ([2]; Table 1 ref 11): 8 µg/mL (≈ 12.5 µM)
MIC C. albicans ([3]; Table 1 ref 11): 128 µg/mL (≈ 200 µM)
MFC C. albicans ([3]; Table 1 ref 11): 128 µg/mL (≈ 200 µM)
IC50 ± SD on HaCaT keratinocytes (HaCaT keratinocytes; 24 h): 3.2 ± 0.1 mg/L (≈ 5 µM)

CCCCCCCCCCCCCCCC(=O)N[C@@H](CCCCN)C(=O)N[C@@H](CCCNC(=N)N)C(=O)N[C@@H](CCCCN)C(N)=O [Lipopeptide C16-KRK-NH2] (Palmitoyl-Lys-Arg-Lys-NH2)
Concentration at which solutions were obtained [7]: 512 µg/mL
IC50 ± SD on HaCaT keratinocytes (HaCaT keratinocytes; 24 h): 2.3 ± 0.4 mg/L (≈ 3.44 µM)
MBC E. coli [4]: 16 µg/mL (≈ 24 µM)
MIC E. coli [4]: 8 µg/mL (≈ 12 µM)
MFC C. albicans [6]: 256 µg/mL (≈ 383 µM)
MIC C. albicans [6]: 128 µg/mL (≈ 192 µM)
MBC S. aureus [5]: 16 µg/mL (≈ 24 µM)
MIC S. aureus [5]: 4 µg/mL (≈ 5.99 µM)

CCCCCCCCCCCCCCCC(=O)N[C@@H](CCCCN)C(=O)N[C@@H](CCCCN)C(N)=O [Lipopeptide C16-KK-NH2]
Concentration at which solutions were obtained [7]: 512 µg/mL
MIC E. coli ([1]; Table 1 ref 11): 8 µg/mL (≈ 15.6 µM)
MBC E. coli ([1]; Table 1 ref 11): 8 µg/mL (≈ 15.6 µM)
Concentration with negative influence on proliferation and viability of human keratinocytes (human keratinocytes): ≥ 1 µg/mL
MIC S. aureus ([2]; Table 1 ref 11): 4 µg/mL (≈ 7.82 µM)
MBC S. aureus ([2]; Table 1 ref 11): 4 µg/mL (≈ 7.82 µM)
MIC C. albicans ([3]; Table 1 ref 11): 128 µg/mL (≈ 250 µM)
MFC C. albicans ([3]; Table 1 ref 11): 128 µg/mL (≈ 250 µM)
IC50 ± SD on HaCaT keratinocytes (HaCaT keratinocytes; 24 h): 1.8 ± 0.2 mg/L (≈ 3.52 µM)

CCCCCCCCCCCCCCCC(=O)N[C@@H](CCCCN)C(=O)NCCCC[C@H](N)C(N)=O [Lipopeptide C16-KεK-NH2]
IC50 ± SD on HaCaT keratinocytes (HaCaT keratinocytes; 24 h): 7.4 ± 0.9 mg/L (≈ 14.5 µM)
MBC E. coli [4]: 32 µg/mL (≈ 62.5 µM)
MIC E. coli [4]: 16 µg/mL (≈ 31.3 µM)
MFC C. albicans [6]: 256 µg/mL (≈ 500 µM)
MIC C. albicans [6]: 128 µg/mL (≈ 250 µM)
MBC S. aureus [5]: 8 µg/mL (≈ 15.6 µM)
MIC S. aureus [5]: 8 µg/mL (≈ 15.6 µM)
